The target in test [1] is T1, human CB2 receptor (hCB2) (Homo sapiens, UniProt P34972). Description: PathHunter beta-arrestin recruitment, CHO-K1. The format is cell-based.
Test [2] concerns the target T2, mouse CB2 receptor (mCB2) (Mus musculus, UniProt P47936). Description: cAMP assay, CHO cells. The format is cell-based. The note with it: agonist.
The target of test [3] is T3, human CB1 receptor (hCB1) (Homo sapiens, UniProt P21554). Description: PathHunter beta-arrestin recruitment, CHO-K1. It is filed as cell-based. In general terms: Arrestin recruitment assays detect the binding of arrestin to an activated receptor.
Test [4] addresses T3, human CB1 receptor (hCB1). As to the kind of experiment: [3H]-CP55940 competition, membranes. It is filed as binding.
The target in test [5] is T1, human CB2 receptor (hCB2). The note with it: Gi2 activation.
In test [6] the target is T1, human CB2 receptor (hCB2). As to conditions: beta-arrestin2 recruitment.
The target in test [7] is T1, human CB2 receptor (hCB2). As to conditions: GoB activation.
Test [8] deals with T1, human CB2 receptor (hCB2). As to conditions: Gi3 activation.
The target of test [9] is T1, human CB2 receptor (hCB2). The note with it: GoA activation.
The target of test [10] is T1, human CB2 receptor (hCB2). The note with it: beta-arrestin1 recruitment.
Test [11] has as its target T1, human CB2 receptor (hCB2). As to conditions: Gi1 activation.
In test [12] the target is T3, human CB1 receptor (hCB1). As to the kind of experiment: biochemical.
Test [13] has as its target T2, mouse CB2 receptor (mCB2). Description: cell-based. The note with it: read-out: cAMP Emax mCB2.
Test [14] has as its target T1, human CB2 receptor (hCB2). As to the kind of experiment: cell-based. As to conditions: read-out: cAMP Emax hCB2.
In test [15] the target is T3, human CB1 receptor (hCB1). Description: cell-based. The note with it: read-out: cAMP Emax hCB1.
Test [16] deals with T2, mouse CB2 receptor (mCB2). Description: [3H]-CP55940 competition, membranes. It is filed as binding.
Test [17] has as its target T1, human CB2 receptor (hCB2). As to the kind of experiment: [3H]-CP55940 competition, membranes. The format is binding.
Test [18] addresses T2, mouse CB2 receptor (mCB2). As to the kind of experiment: cell-based.
In test [19] the target is T3, human CB1 receptor (hCB1). As to the kind of experiment: cAMP assay, CHO cells. It is filed as cell-based. As to conditions: agonist. A general note: Cyclic AMP is a second messenger, typically raised through Gs and lowered through Gi signalling.
The target of test [20] is T2, mouse CB2 receptor (mCB2). As to the kind of experiment: biochemical.
Test [21] concerns the target T3, human CB1 receptor (hCB1). As to the kind of experiment: [3H]-CP55940 competition, membranes. The format is binding. This is another data set of the same source.
For test [22], the target named is T3, human CB1 receptor (hCB1). Description: cell-based.
Test [23] has as its target T2, mouse CB2 receptor (mCB2). Description: cAMP assay, CHO cells. The format is cell-based.

Read-outs that look alike come from different tables or passages of the source.

T2 sequence (P47936 whole entry): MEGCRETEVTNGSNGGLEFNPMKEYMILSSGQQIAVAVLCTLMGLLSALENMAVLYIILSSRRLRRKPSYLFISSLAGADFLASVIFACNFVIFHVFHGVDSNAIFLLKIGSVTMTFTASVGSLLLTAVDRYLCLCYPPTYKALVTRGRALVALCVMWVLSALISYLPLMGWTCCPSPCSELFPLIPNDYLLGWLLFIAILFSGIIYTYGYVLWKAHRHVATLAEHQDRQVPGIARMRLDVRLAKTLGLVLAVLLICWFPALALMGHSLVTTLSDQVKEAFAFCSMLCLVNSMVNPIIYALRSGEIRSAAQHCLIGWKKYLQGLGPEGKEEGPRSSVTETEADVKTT
T1 sequence (P34972 whole entry): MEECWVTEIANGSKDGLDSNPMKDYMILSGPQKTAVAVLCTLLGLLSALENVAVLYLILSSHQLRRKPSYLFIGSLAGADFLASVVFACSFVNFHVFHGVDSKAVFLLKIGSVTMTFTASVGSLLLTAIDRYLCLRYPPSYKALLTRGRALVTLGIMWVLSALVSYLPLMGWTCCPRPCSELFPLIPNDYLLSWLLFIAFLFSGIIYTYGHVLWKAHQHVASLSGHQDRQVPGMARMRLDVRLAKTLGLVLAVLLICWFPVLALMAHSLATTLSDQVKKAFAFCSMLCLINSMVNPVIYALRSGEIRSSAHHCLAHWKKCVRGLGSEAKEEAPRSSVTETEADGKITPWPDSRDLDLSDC
T3 sequence (P21554 whole entry): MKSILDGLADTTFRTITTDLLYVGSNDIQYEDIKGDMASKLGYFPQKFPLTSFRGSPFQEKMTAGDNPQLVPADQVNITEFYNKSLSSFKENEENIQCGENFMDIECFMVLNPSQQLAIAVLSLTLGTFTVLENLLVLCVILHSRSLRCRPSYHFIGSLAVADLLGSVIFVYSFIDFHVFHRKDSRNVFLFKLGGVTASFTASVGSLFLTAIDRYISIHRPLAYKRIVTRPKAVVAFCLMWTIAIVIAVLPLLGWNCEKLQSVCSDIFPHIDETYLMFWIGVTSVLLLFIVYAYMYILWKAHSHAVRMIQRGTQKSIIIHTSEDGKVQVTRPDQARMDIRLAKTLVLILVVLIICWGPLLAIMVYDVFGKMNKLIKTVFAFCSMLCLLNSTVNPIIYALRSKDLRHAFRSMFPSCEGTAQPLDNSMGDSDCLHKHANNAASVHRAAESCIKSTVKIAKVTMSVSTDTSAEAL

As for `CN1CCCCC1Cn1cc(C(=O)c2cc([N+](=O)[O-])ccc2I)c2ccccc21` (racemic) [(rac)-AM1241], the EC50 (commonly the concentration at which the effect is half-maximal) in test [1] is > 10000 nM.

Regarding `CCCCCCC(C)(C)c1ccc([C@@H]2C[C@H](O)CC[C@H]2CCCO)c(O)c1` [CP55940], the “cAMP pEC50” value in test [2] was 10.17.

Regarding `CCCCCCC(C)(C)c1cc(OC)c([C@@H]2C=C(CO)[C@@H]3C[C@H]2C3(C)C)c(OC)c1` [HU308], in [3], the EC50 is > 10000 nM. In test [4], the inhibitory constant (Ki) (usually the equilibrium dissociation constant of an inhibitor or competing ligand from its target) was > 10000 nM.

Turning to `CCN1CCN(c2nc(C3CC3)nc3c2nnn3Cc2ccccc2Cl)CC1` [RO6435559], in test [5], the “Gi2 pEC50” value stood at 8.154 M. Moreover, in test [6], the “β-arrestin2 pEC50” value was 8.131 M. Moreover, the “GoB pEC50” value in [7] is given as 7.794 M. Moreover, the “Gi3 pEC50” value in test [8] was found to be 7.941 M. Further, in [9], the “GoA pEC50” value was 7.998 M. Also, the “β-arrestin1 pEC50” value in test [10] is listed as 8.518 M. Moreover, in test [11], the “Gi1 pEC50” value was determined as 7.984 M.

In test [12], `CCOC(=O)C(CC)(CC)NC(=O)c1ccc(N2CCCC2)c(OCC2CC2)n1` [RO6843766] displayed a Ki of 617 nM. Further, the Emax (as a rule, the greatest response seen or fitted, relative to the assay's reference) in test [13] turned out to be 61%; in test [14] it was 91%; in test [15], 59%.

`CN1CCN(c2nc(C(C)(C)C)nc3c2nnn3Cc2ccccc2Cl)CC1` [RO6844395]: the “pKi hCB1” value in test [12] (binder) was 5.76 M. In addition, the “Gi2 pEC50” value in [5] was found to be 7.499 M. Besides, the pKi (as a rule, the Ki on a negative log10 scale, so that one unit is a factor of ten) in [16] is recorded as 6.87; in test [17] it was 7.67. For the same compound, the Emax turned out to be 80% in [13], 99% in [14] and 57% in test [15]. In test [8], the “Gi3 pEC50” value was 7.994 M. In addition, in test [9], the “GoA pEC50” value is 7.607 M. The “cAMP pEC50 mCB2” value in test [18] (cAMP, agonist) was 7.30 M. In test [11], the “Gi1 pEC50” value worked out at 7.855 M.

Turning to `CCOC(=O)[C@H](CC(C)C)NC(=O)c1ccc(C2CC2)c(Cc2ccc(F)cc2)n1` [RO6853973], the Emax worked out at 23% in test [13], 45% in test [14] and 83% in [15]. In addition, the “cAMP pEC50” value in test [19] stood at 8.12. The compound also gave a Ki in test [20] of 0.676 nM. Besides, the pKi in test [21] was 8.21; in test [17], 9.45. The EC50 in test [18] was > 10000 nM.

`O=S(=O)(Cc1ccccc1)c1nc(N2CCC(F)(F)C2)c2nnn(Cc3ccccc3Cl)c2n1` [RO6871487]: the EC50 in test [22] and in test [18] was > 10000 nM in each case. The Ki was 4570 nM in test [12] and 6.92 nM in test [20]. Also, the figures for the Emax in test [13], in [14] and in [15] were 24%, 52% and 9%, respectively.

Consider `OCCSc1nc(N2CCC(F)(F)C2)c2nnn(Cc3ccccc3Cl)c2n1` [RO6878558], for which the concentration for a half-maximal effect (EC50) in test [22] is > 10000 nM. Also, the Ki in [12] was > 10000 nM. For the same compound, the Emax in [13] was found to be 92%; in test [14] it was 87%; in [15], 20%. In [17], this compound showed a pKi of 6.94.

For the compound `CC(C)(C)c1noc(-c2ccc(C3CC3)c(Cc3ccc(F)cc3)n2)n1` [RO6892033, 6-(3-tert-Butyl-1,2,4-oxadiazol-5-yl)-3-cyclopropyl-2-[(4-fluorophenyl)methyl]pyridine], the Emax came to 45% in test [13], 66% in test [14] and 70% in test [15]. For the same compound, in [23], the response was half-maximal at 4.07 nM (EC50). In test [20], this compound had a Ki of 7.59 nM.

Take `CC(C)(C)c1nc(-c2cc(OCc3ccc(F)cc3)c(C3CC3)c(Cl)n2)no1` [RO6926274]: the “cAMP pEC50” value in test [23] was < 5.
